For assay [1], the target named is T1, PDGFRβ (Homo sapiens, UniProt P09619).
T1 construct: expressed in transfected cells; host or cells: porcine aorta endothelial (PAE) cells
Nature of the assay: PAE-PDGFRβ phosphorylation in PAE-PDGFRB cells assay. Type of assay: cell-based. The settings on record: PAE cells overexpressing human PDGFRβ, PDGF-BB stimulated; read-out: PAE PDGFR autophos IC50. Here is the method:
This assay determines the ability of a test compound to inhibit the autophosphorylation of PDGFRβ in porcine aorta endothelial (PAE)-PDGFRβ cells. PAE cells that overexpress human PDGFRβ were used in this assay. The cells were cultured in Ham's F12 media supplemented with 10% fetal bovine serum (FBS) and 400 ug/ml G418. Twenty thousands cells were seeded in each well of a 96-well plate in 50 μL of growth media and allowed to attach for 6 hours at 37° C. Cells were then exposed to the starvation media (Ham's F12 media supplemented with 0.1% FBS) for 16 hours. After the starvation period was over, 10 μL of test agent in 5% DMSO in starvation media were added to the test wells and 10 μL of the vehicle (5% DMSO in starvation media) were added into the control wells. The final DMSO concentration in each well was 0.5%. Plates were incubated at 37° C. for 1 hour and the cells were then stimulated with 1 μg/mL PDGF-BB (R & D System) in the presence of 2 mM Na3VO4 for 8 minutes. The cells were washed once with 1 mm Na3VO4 in HBSS and lysed by adding 50 μL per well of lysis buffer. One hundred μL of dilution buffer were then added to each well and the diluted cell lysate was transferred to a 96-well goat ant-rabbit coated plate (Pierce), which was pre-coated with Rabbit anti Human PDGFRβ antibody (Santa Cruz). The plates were incubated at room temperature for 2 hours and washed seven times with 1% Tween 20 in PBS. HRP-PY20 (Santa Cruz) was diluted and added to the plate for a 30-minute incubation. Plates were then washed again and TMB peroxidase substrate (Kirkegaard & Perry) was added for a 10-minute incubation. One hundred μL of 0.09 N H2SO4 was added into each well of the 96-well plate to stop the reaction. Phosphorylation status was assessed by spectrophotometer reading at 450 nm. IC50 values were calculated by curve fitting using a four-parameter analysis.

The test system of assay [2] is human umbilical vein endothelial cells (HUVEC). Nature of the assay: HUVEC+VEGF proliferation assay. It counts as cell-based. The settings on record: Homo sapiens, HUVEC, 72 h, VEGF 6 ng/mL, MTT. Here is the method: This assay determines the ability of a test compound to inhibit the growth factor-stimulated proliferation of human umbilical vein endothelial cells (“HUVEC”). HUVEC cells (passage 3-4, Clonetics, Corp.) were thawed into EGM2 culture medium (Clonetics Corp) in T75 flasks. Fresh EGM2 medium was added to the flasks 24 hours later. Four or five days later, cells were exposed to another culture medium (F12K medium supplemented with 10% fetal bovine serum (FBS), 60 μg/mL endothelial cell growth supplement (ECGS), and 0.1 mg/mL heparin). Exponentially-growing HUVEC cells were used in experiments thereafter. Ten to twelve thousand HUVEC cells were plated in 96-well dishes in 100 μl of rich, culture medium (described above). The cells were allowed to attach for 24 hours in this medium. The medium was then removed by aspiration and 105 μl of starvation media (F12K+1% FBS) was added to each well. After 24 hours, 15 μl of test agent dissolved in 1% DMSO in starvation medium or this vehicle alone was added into each treatment well; the final DMSO concentration was 0.1%. One hour later, 30 μl of VEGF (30 ng/mL) in starvation media was added to all wells except those containing untreated controls; the final VEGF concentration was 6 ng/mL. Cellular proliferation was quantified 72 hours later by MTT dye reduction, at which time cells were exposed for 4 hours MTT (Promega Corp.). Dye reduction was stopped by addition of a stop solution (Promega Corp.) and absorbance at 595 nm was determined on a 96-well spectrophotometer plate reader.

In assay [3] the target is T2, unphosphorylated VEGF-R2Δ50 (FLVK) (Homo sapiens, UniProt P35968, DEL940-989/E990V).
T2 construct: VEGF-R2Δ50 contains residues 806-939 and 990-1171; made in house; host or cells: baculovirus/insect cell system
T2 sequence (P35968 with tags, fused parts or gaps DEL940-989/E990V limits assumed): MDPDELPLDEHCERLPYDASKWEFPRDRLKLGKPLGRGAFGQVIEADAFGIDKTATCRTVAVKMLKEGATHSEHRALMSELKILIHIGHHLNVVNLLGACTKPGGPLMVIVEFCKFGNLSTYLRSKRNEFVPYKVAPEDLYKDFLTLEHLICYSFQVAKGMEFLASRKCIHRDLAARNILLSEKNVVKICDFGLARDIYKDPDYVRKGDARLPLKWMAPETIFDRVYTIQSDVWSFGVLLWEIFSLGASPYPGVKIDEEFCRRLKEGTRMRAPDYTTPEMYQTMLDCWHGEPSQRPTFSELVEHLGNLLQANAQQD
Nature of the assay: VEGF-R2 coupled spectrophotometric assay, unphosphorylated construct (FLVK). Type of assay: biochemical. The note with it: for inhibition at 0.05 µM: percent inhibition at 50 nM. The source says:
This construct determines the ability of a test compound to inhibit tyrosine kinase activity. A construct (VEGF-R2Δ50) of the cytosolic domain of human vascular endothelial growth factor receptor 2 (VEGF-R2) lacking the 50 central residues of the 68 residues of the kinase insert domain was expressed in a baculovirus/insect cell system. Of the 1356 residues of full-length VEGF-R2, VEGF-R2Δ50 contains residues 806-939 and 990-1171, and also one point mutation (E990V) within the kinase insert domain relative to wild-type VEGF-R2. Autophosphorylation of the purified construct was performed by incubation of the enzyme at a concentration of 4 μM in the presence of 3 mM ATP and 40 mM MgCl2 in 100 mM HEPES, pH 7.5, containing 5% glycerol and 5 mM DTT, at 4° C. for 2 h. […] See Parast et al., Biochemistry, 37, 16788-16801 (1998).
The production of ADP from ATP that accompanies phosphoryl transfer was coupled to oxidation of NADH using phosphoenolpyruvate (PEP) and a system having pyruvate kinase (PK) and lactic dehydrogenase (LDH). The oxidation of NADH was monitored by following the decrease of absorbance at 340 nm ([…]=6.22 cm^−1 mM^−1) using a Beckman DU 650 spectrophotometer. Assay conditions for phosphorylated VEGF-R2Δ50 (indicated as FLVK-P in the tables below) were the following: 1 mM PEP; 250 μM NADH; 50 units of LDH/mL; 20 units of PK/mL; 5 mM DTT; […]; 1 mM ATP; and 25 mM MgCl2 in 200 mM HEPES, pH 7.5. Assay conditions for unphosphorylated VEGF-R2Δ50 (indicated as FLVK in the tables) were the following: 1 mM PEP; 250 μM NADH; 50 units of LDH/mL; 20 units of PK/mL; 5 mM DTT; […]; 3 mM ATP; and 60 mM MgCl2 and 2 mM MnCl2 in 200 mM HEPES, pH 7.5. Assays were initiated with 5 to 40 nM of enzyme. Ki values were determined by measuring enzyme activity in the presence of varying concentrations of test compounds. The percent inhibition at 50 nm (% inhibition@ 50 nm) was determined by linear least-squares regression analysis of absorbance as a function of time. The binding inhibitions were fitted to equation as described by Morrison. The data were analyzed using Enzyme Kinetic and Kaleidagraph software.

Values joined by “and” are separate entries in the source; they are usually repeats but may differ in a detail not shown here. Equal values may be shown once.

T1 sequence (P09619 33-1106): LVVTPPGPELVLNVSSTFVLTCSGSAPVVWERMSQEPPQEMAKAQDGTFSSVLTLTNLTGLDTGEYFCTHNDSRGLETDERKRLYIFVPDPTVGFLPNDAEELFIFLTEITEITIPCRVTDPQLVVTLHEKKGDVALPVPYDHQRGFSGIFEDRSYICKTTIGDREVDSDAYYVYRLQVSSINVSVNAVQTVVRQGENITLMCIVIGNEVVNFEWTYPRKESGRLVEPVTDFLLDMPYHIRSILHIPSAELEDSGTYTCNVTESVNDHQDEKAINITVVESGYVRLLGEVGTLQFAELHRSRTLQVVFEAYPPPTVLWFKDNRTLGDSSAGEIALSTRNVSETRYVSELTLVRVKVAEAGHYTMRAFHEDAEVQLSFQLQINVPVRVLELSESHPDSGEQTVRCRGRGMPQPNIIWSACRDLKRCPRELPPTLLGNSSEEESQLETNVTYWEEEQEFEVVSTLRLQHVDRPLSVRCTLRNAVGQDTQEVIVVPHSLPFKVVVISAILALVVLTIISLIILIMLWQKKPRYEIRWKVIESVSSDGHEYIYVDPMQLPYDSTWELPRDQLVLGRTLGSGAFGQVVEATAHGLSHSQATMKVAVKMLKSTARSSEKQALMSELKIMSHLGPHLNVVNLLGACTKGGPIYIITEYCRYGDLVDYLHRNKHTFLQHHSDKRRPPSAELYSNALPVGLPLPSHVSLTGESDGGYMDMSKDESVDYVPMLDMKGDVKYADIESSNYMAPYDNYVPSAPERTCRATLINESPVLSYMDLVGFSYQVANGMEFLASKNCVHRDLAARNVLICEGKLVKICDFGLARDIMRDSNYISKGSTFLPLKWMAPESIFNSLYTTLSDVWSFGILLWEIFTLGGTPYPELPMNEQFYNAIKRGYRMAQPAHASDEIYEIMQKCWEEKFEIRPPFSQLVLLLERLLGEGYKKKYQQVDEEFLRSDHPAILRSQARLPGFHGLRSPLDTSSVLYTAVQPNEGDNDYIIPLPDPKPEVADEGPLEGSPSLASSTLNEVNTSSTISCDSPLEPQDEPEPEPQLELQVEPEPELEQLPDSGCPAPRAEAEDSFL

Consider `CNC(=O)n1c(C)cc2cc(Nc3ccnc4cc(C(=O)N5CC[C@H](OC)C5)sc34)ccc21` [Example 1g, 5-[2-(3S-Methoxy-pyrrolidine-1-carbonyl)-thieno[3,2-b]pyridin-7-ylamino]-2-methyl-indole-1-carboxylic acid methylamide], for which the IC50 in assay [1] was 95 nM and 152 nM; in assay [2], 1 nM.

In the case of `C#CCNC(=O)n1c(C)cc2cc(Nc3ccnc4cc(C(=O)N5CC[C@H](O)C5)sc34)ccc21` [Example 1j, 5-[2-(3S-Hydroxy-pyrrolidine-1-carbonyl)-thieno[3,2-b]pyridin-7-ylamino]-2-methyl-indole-1-carboxylic acid prop-2-ynylamide], in assay [3], the Ki stood at 0.72 nM and at 0.05 µM the inhibition was 96%. Moreover, the IC50 in assay [2] came to 0.149 nM.

For `CNC(=O)n1c(C)cc2cc(Nc3ccnc4cc(C(=O)N5C[C@H](OC)[C@@H](OC)C5)sc34)ccc21` [Example 1r, 5-[2-(3S,4S-Dimethoxy-pyrrolidine-1-carbonyl)-thieno[3,2-b]pyridin-7-ylamino]-2-methyl-indole-1-carboxylic acid methylamide], the IC50 in assay [1] is 155 nM and 120 nM; in assay [2], 0.301 nM. The compound also returned a Ki in assay [3] of 0.64 nM. The same compound registered an inhibition at 0.05 µM in assay [3] of 93%.

In assay [3], `Cc1cc2cc(Nc3ccnc4cc(C(=O)N5C[C@H](O)C[C@H]5C(C)(C)O)sc34)ccc2n1C(=O)NC1CC1` [Example 3e] had a Ki of 2.1 nM and an inhibition at 0.05 µM of 87%. For the same compound, the IC50 in assay [2] was determined as 4.9 nM.

In the case of `CNC(=O)n1c(C)cc2cc(Nc3cccc4cc(C(=O)N5C[C@H](O)C[C@H]5CO)sc34)ccc21` [Example 3i, 5-[2-((2S,4R)-4-Hydroxy-2-hydroxymethyl-pyrrolidine-1-carbonyl)-benzo[b]thiophen-7-ylamino]-2-methyl-indole-1-carboxylic acid methylamide], in assay [3], the affinity, expressed as Ki, was 4.17 nM and the inhibition at 0.05 µM was determined as 74%. Also, the IC50 in assay [2] was 5.5 nM.

On to `CO[C@H]1CCN(C(=O)c2cc3nccc(Oc4ccc5c(c4)cc(C)n5C(=O)NCC#CC4CC4)c3s2)C1` [Example 4i, 5-[2-(3S-Methoxy-pyrrolidine-1-carbonyl)-thieno[3,2-b]pyridin-7-yloxy]-2-methyl-indole-1-carboxylic acid (3-cyclopropyl-prop-2-ynyl)-amide], for which the half-inhibitory concentration (IC50) in assay [1] came to 5.5 nM. In addition, in assay [3], the Ki was determined as 1.56 nM and 0.05 µM produced 97% inhibition. For the same compound, in assay [2], the IC50 amounted to 0.569 nM.

In assay [3], `CNC(=O)n1c(C)cc2c(F)c(Oc3ccnc4cc(C(=O)N5CC[C@H](O)C5)sc34)ccc21` [Example 5i, 4-Fluoro-5-[2-(3S-hydroxy-pyrrolidine-1-carbonyl)-thieno[3,2-b]pyridin-7-yloxy]-2-methyl-indole-1-carboxylic acid methylamide] returned a Ki of 0.525 nM and an inhibition at 0.05 µM of 97%. For the same compound, in assay [2], the IC50 came to 0.11 nM.

Turning to `CNC(=O)c1c(C)n(C(=O)NC)c2ccc(Oc3ccnc4cc(C(=O)N5CC[C@@H](N(C)C)C5)sc34)cc12` [Example 8a, 5-[(2-{[(3R)-3-(Dimethylamino)pyrrolidin-1-yl]carbonyl}thieno[3,2-b]pyridin-7-yl)oxy]-N,N′,2-trimethyl-1H-indole-1,3-dicarboxamide], the IC50 in assay [1] is above 1000 nM. Also, in assay [3], the Ki amounted to 4.55 nM and the inhibition at 0.05 µM is 68%.

Take `CNC(=O)n1c(C)cc2cc(Nc3ncnc4sc(C(=O)N5CCC[C@H]5COC)cc34)ccc21` [Example 12b, 5-[6-(2-Methoxymethyl-pyrrolidine-1-carbonyl)-thieno[2,3-b]pyrimidin-4-ylamino]-2-methyl-indole-1-carboxylic acid methylamide]: the half-maximal inhibitory concentration (IC50) in assay [1] was above 1000 nM. Also, in assay [3], the Ki is 141 nM and at 0.05 µM the inhibition was 5%.

One may read the IC50 as the point on the concentration scale where inhibition reaches its midpoint. One may read the Ki as a dissociation constant, usually derived from enzyme kinetics or from competition with a known ligand. One may read the inhibition as the percentage by which the read-out fell short of the control. Read a low inhibition as a response near the control.

The values are drawn from US6833456B2, “Indolyl-urea derivatives of thienopyridines useful as antiangiogenic agents, and methods for their use” (Agouron Pharmaceuticals, Inc., priority 2002, dated 2004).
